Among the data in ChEMBL document CHEMBL1143685, “Sulfated glucosamine inhibits MMP-2 and MMP-9 expressions in human fibrosarcoma cells” (Bioorg Med Chem, 2007) are Activity values, retold here.

In data set [1] the test system is HT-1080. The data set can be described thus: Toxicity against human HT1080 cells assessed as cell viability after 24 hrs by MTT assay. The note with it: ht-1080, 24 h. In kind it is cell-based.
A further data set relates to MRC5. The data set can be described thus: Toxicity against human MRC5 cells assessed as cell viability after 24 hrs by MTT assay. In kind it is cell-based. The note with it: mrc5, 24 h. (Tetrazolium assays rely on reduction of a dye to a coloured formazan, in cell work by metabolically active cells.)
The subject of data set [2] is HT-1080. The data set can be described thus: Inhibition of MMP9 expression in human HT1080 cells. The data set is classed as functional, cell-based.
Data set [3] has as its system HT-1080. Briefly: Inhibition of MMP2 expression in human HT1080 cells. In kind it is functional, cell-based.
Data set [4] deals with HT-1080. Briefly: Inhibition of NF-kappaB promoter activity in human HT1080 cells. In kind it is functional, cell-based.
In data set [5] the test system is HT-1080. The data set can be described thus: Inhibition of PMA-stimulated activator protein-1 promotor activity in human HT1080 cells. In kind it is functional, cell-based.

The source made the active and inactive calls. No cut-off for these calls is given here.

With `N[C@@H](C=O)[C@@H](O)[C@H](O)[C@H](O)COS(=O)(=O)O`, the Activity result was “Active” with HT-1080 [1]; “Active” with MRC5; “Dose-dependent effect” in the data set with HT-1080 [2]; “Dose-dependent effect” with HT-1080 [3]; “Dose-dependent effect” with HT-1080 [4]. Besides, the outcome with HT-1080 [5] was inactive.
